Measured values: patent US20230416849A1, “METHODS FOR DETECTING VIRAL RNA USING ATP-RELEASING NUCLEOTIDES” (priority 2020, published 2023)

Target: luciferase (Photinus pyralis, UniProt P08659)
Assay: Reactivity of apyrase ATP-depleted nucleotide stocks with luciferase (background signal)
Format: biochemical
Description: ARNs were investigated as a source of background signal. There are two possible sources of background resulting from ARNs: (1) residual ATP contamination from the insufficient purification, and (2) the potential for these nucleotides to be accepted as substrates by luciferase. While ATP contamination can be removed, the kinetics of a nucleotide to react with luciferase is intrinsic to the molecule and thus much more difficult to manipulate. Apyrase was used to deplete nucleotide stocks of ATP in order to compare their reactivity with luciferase. […] However, dCp4A had high levels of ATP contamination.

luciferase, sequence (P08659 whole entry): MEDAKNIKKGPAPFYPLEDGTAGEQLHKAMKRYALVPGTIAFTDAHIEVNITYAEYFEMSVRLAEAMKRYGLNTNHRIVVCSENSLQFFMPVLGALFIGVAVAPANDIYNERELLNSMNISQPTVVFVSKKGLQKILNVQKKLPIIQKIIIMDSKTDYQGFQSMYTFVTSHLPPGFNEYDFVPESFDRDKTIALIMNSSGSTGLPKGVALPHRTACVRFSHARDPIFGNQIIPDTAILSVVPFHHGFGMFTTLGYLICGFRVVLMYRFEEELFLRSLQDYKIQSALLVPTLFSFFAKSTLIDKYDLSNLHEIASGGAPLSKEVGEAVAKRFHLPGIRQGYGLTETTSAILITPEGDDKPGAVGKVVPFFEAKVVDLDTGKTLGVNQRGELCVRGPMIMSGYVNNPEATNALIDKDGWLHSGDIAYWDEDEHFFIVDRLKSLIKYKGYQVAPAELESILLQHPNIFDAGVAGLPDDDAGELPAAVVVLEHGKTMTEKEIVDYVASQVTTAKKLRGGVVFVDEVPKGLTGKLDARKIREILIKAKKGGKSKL

Row | Compound | activity with luciferase compared with pyrimidine counterparts (dCp4A and dTp4A)
1 | Nc1ncnc2c1ncn2[C@@H]1O[C@H](COP(=O)(O)OP(=O)(O)OP(=O)(O)OP(=O)(O)OC[C@H]2O[C@@H](n3cnc4c(N)ncnc43)C[C@@H]2O)[C@@H](O)[C@H]1O [dAp4A, deoxyadenosine-5′-tetraphosphate-P4-5′-adenosine] | higher activity
2 | Nc1nc2c(ncn2[C@H]2C[C@H](O)[C@@H](COP(=O)(O)OP(=O)(O)OP(=O)(O)OP(=O)(O)OC[C@H]3O[C@@H](n4cnc5c(N)ncnc54)[C@H](O)[C@@H]3O)O2)c(=O)[nH]1 [dGp4A, deoxyguanosine-5′-tetraphosphate-P4-5′-adenosine] | higher activity
